Test results: patent publication US11524073B2, “Anti-human ADRB3 monoclonal antibody and application thereof in disease diagnosis and treatment” (priority 2017, dated 2022)

System: Human glioma cells U87
Assay: Glioma treatment in nude mice
Assay type: in vivo
Procedure: Human glioma cells U87 were subcutaneously transplanted into the back of nude mice of 6 weeks old, which were used as the tumor model after tumor formation. In the experiment, the mice were divided into 4 groups with 8 mice in each group: normal control group, model control group, ADRB3 antibody treatment group, Gemcitabine and CD40 antibody combined treatment group. The ADRB3 antibody treatment group was intraperitoneally injected with 0.1 mg of ADRB3 antibody once every 5 days for a total of 6 weeks. The model control group was intraperitoneally injected with equivalent amount of normal saline.

For `Nc1ccn([C@@H]2O[C@H](CO)[C@@H](O)C2(F)F)c(=O)n1` [Gemcitabine], the “metastatic lesion in the lung” value was “some metastases are found”.
